Reference: paper PMC8359193, “Summary of reference chemicals evaluated by the fish short‐term reproduction assay, OECD TG229, using Japanese Medaka, Oryzias latipes” (Journal of Applied Toxicology, 2021)

System: Japanese medaka (Oryzias latipes)
Test: Fish short-term reproduction assay (FSTRA, OECD TG229), 21-day flow-through exposure
Conditions: for Fertility rate (%) / Mortality (%) Female / Mortality (%) Male / Number of fertilized eggs / Number of total eggs / SSC Female / SSC Male / VTG (ng/mg of liver) Female / VTG (ng/mg of liver) Male: 21 days; for GSI Female / GSI Male / HSI Female / HSI Male / Length Female / Length Male / Weight Female / Weight Male: at completion of exposure; for effect on fecundity (number of total eggs), in words: within the test concentrations
Method in brief: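 Run to OECD TG229: mature NIES-R medaka pairs (3♂/3♀ per vessel, 4 vessels per treatment plus dilution water control) were dosed by continuous flow-through for 21 days. Test concentrations were spaced 2- to 5-fold. Daily spawned eggs were counted under the microscope for fertilized versus unfertilized.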

[1] = 21-day exposure, measured conc.

## C[C@]12CCC(=O)C=C1CC[C@@H]1[C@@H]2CC[C@@]2(C)[C@H]1CC[C@]2(C)O [MT, 17α‐methyltestosterone]
21-day exposure
  effect on female hepatic VTG, in words: decreased
  effect on fecundity (number of total eggs), in words: significantly reduced
[1]
  LOEC on female SSC (papillary process formation on anal fin): 20.1 ng/L
Measured conc. 20.1 ng/L
  Fertility rate (%): 89%
  Mortality (%) Female: 0%
  Mortality (%) Male: 0%
  Number of fertilized eggs: 23
  Number of total eggs: 25 ± 4.6 /female/day
  SSC Female: 28 ± 2.0
  SSC Male: 104 ± 12
  VTG (ng/mg of liver) Female: 1,650 ± 134 ng/mg of liver
  VTG (ng/mg of liver) Male: 1.5 ± 0.3 ng/mg of liver
  GSI Female: 13.5%
  GSI Male: 0.68%
  HSI Female: 4.8%
  HSI Male: 2.5%
  Length Female: 36.1 mm
  Length Male: 37.3 mm
  Weight Female: 592 mg
  Weight Male: 546 mg
Measured conc. 77.4 ng/L
  Fertility rate (%): 80%
  Mortality (%) Female: 0%
  Mortality (%) Male: 0%
  Number of fertilized eggs: 8.1
  Number of total eggs: 10 ± 2.9 /female/day
  SSC Female: 78 ± 7.9
  SSC Male: 106 ± 7.6
  VTG (ng/mg of liver) Female: 1,080 ± 391 ng/mg of liver
  VTG (ng/mg of liver) Male: 2.1 ± 0.3 ng/mg of liver
  GSI Female: 18.6%
  GSI Male: 0.78%
  HSI Female: 4.4%
  HSI Male: 2.4%
  Length Female: 36.7 mm
  Length Male: 38.3 mm
  Weight Female: 694 mg
  Weight Male: 603 mg
Measured conc. 300 ng/L
  Fertility rate (%): 79%
  Mortality (%) Female: 8.3%
  Mortality (%) Male: 0%
  Number of fertilized eggs: 1.4
  Number of total eggs: 1.8 ± 1.1 /female/day
  SSC Female: 85 ± 11
  SSC Male: 112 ± 7.1
  VTG (ng/mg of liver) Female: 320 ± 266 ng/mg of liver
  VTG (ng/mg of liver) Male: 1.9 ± 0.6 ng/mg of liver
  GSI Female: 12.6%
  GSI Male: 0.68%
  HSI Female: 4.2%
  HSI Male: 2.5%
  Length Female: 37.0 mm
  Length Male: 37.5 mm
  Weight Female: 654 mg
  Weight Male: 561 mg

## CC(=O)[C@H]1CC[C@H]2[C@@H]3CCC4=CC(=O)CC[C@]4(C)[C@H]3CC[C@]12C [P4, Progesterone]
21-day exposure
  effect on female hepatic VTG, in words: no alteration
  effect on fecundity (number of total eggs), in words: significant difference from the control
[1]
  LOEC on female SSC (papillary process formation on anal fin): 11000 ng/L
female, measured conc. 243 μg/L
  GSI Female: 36.9%
male, measured conc. 11 μg/L
  GSI Male: 1.20%
  HSI Male: 2.0%
  Length Male: 36.9 mm
  Weight Male: 501 mg
male, measured conc. 24 μg/L
  GSI Male: 1.04%
  HSI Male: 1.9%
  Length Male: 36.4 mm
  Weight Male: 475 mg
male, measured conc. 64 μg/L
  GSI Male: 1.14%
  HSI Male: 2.8%
  Length Male: 37.1 mm
  Weight Male: 465 mg
male, measured conc. 243 μg/L
  GSI Male: 1.15%
  HSI Male: 2.1%
  Length Male: 36.9 mm
  Weight Male: 479 mg
Measured conc. 11 μg/L
  Fertility rate (%): 92%
  Mortality (%) Female: 0%
  Mortality (%) Male: 0%
  Number of fertilized eggs: 17
  Number of total eggs: 18 ± 3.8 /female/day
  SSC Female: 11 ± 8.9
  SSC Male: 109 ± 14
  VTG (ng/mg of liver) Female: 746 ± 419 ng/mg of liver
  VTG (ng/mg of liver) Male: 33 ± 29 ng/mg of liver
Measured conc. 24 μg/L
  Fertility rate (%): 91%
  Mortality (%) Female: 8%
  Mortality (%) Male: 0%
  Number of fertilized eggs: 16
  Number of total eggs: 17 ± 4.0 /female/day
  SSC Female: 21 ± 5.9
  SSC Male: 108 ± 20
  VTG (ng/mg of liver) Female: 818 ± 270 ng/mg of liver
  VTG (ng/mg of liver) Male: 29 ± 22 ng/mg of liver
Measured conc. 64 μg/L
  Fertility rate (%): 87%
  Mortality (%) Female: 8%
  Mortality (%) Male: 0%
  Number of fertilized eggs: 15
  Number of total eggs: 16 ± 6.5 /female/day
  SSC Female: 35 ± 8.9
  SSC Male: 101 ± 13
  VTG (ng/mg of liver) Female: 1,008 ± 445 ng/mg of liver
  VTG (ng/mg of liver) Male: 37 ± 27 ng/mg of liver
Measured conc. 243 μg/L
  Fertility rate (%): 2.9%
  Mortality (%) Female: 83%
  Mortality (%) Male: 50%
  Number of fertilized eggs: 0.2
  Number of total eggs: 1.0 ± 2.3 /female/day
  SSC Female: 32 ± 21
  SSC Male: 100 ± 10
  VTG (ng/mg of liver) Female: 899 ± 139 ng/mg of liver
  VTG (ng/mg of liver) Male: 37 ± 36 ng/mg of liver

## CCC(C)(C)c1ccc(O)cc1 [PTH, 4‐tert‐Pentylphenol]
Hepatic VTG, 21-day exposure
  LOEC on VTG induction in male (in molarity): 590 nM
Hepatic VTG, 21-day exposure, measured conc.
  LOEC for VTG induction in males: 96.5 µg/L
Highest concentration, 21-day exposure
  effect on male GSI, in words: significant decreasing
In vivo
  LOEC (in molarity) for male VTG: times higher than that of E2: 14,000 times
  LOEC on male VTG induction: times smaller than the LOEC for CMP: > 8 times
Measured conc. 96.5 μg/L
  Fertility rate (%): 92%
  Mortality (%) Female: 8.3%
  Mortality (%) Male: 0%
  Number of fertilized eggs: 18
  Number of total eggs: 19 ± 6.6 /female/day
  SSC Female: 0 ± 0
  SSC Male: 98 ± 8.0
  VTG (ng/mg of liver) Female: 1,680 ± 240 ng/mg of liver
  VTG (ng/mg of liver) Male: 83.2 ± 106 ng/mg of liver
  GSI Female: 9.5%
  GSI Male: 0.74%
  HSI Female: 4.3%
  HSI Male: 2.5%
  Length Female: 34.8 mm
  Length Male: 35.8 mm
  Weight Female: 470 mg
  Weight Male: 532 mg
Measured conc. 342 μg/L
  Fertility rate (%): 93%
  Mortality (%) Female: 8.3%
  Mortality (%) Male: 0%
  Number of fertilized eggs: 17
  Number of total eggs: 18 ± 3.6 /female/day
  SSC Female: 0 ± 0
  SSC Male: 94 ± 14
  VTG (ng/mg of liver) Female: 2,820 ± 1,540 ng/mg of liver
  VTG (ng/mg of liver) Male: 621 ± 265 ng/mg of liver
  GSI Female: 8.1%
  GSI Male: 0.67%
  HSI Female: 4.5%
  HSI Male: 3.1%
  Length Female: 34.5 mm
  Length Male: 34.7 mm
  Weight Female: 476 mg
  Weight Male: 516 mg
Measured conc. 1,100 μg/L
  Fertility rate (%): 74%
  Mortality (%) Female: 17%
  Mortality (%) Male: 8.3%
  Number of fertilized eggs: 10
  Number of total eggs: 13 ± 3.6 /female/day
  SSC Female: 0 ± 0
  SSC Male: 95 ± 5.0
  VTG (ng/mg of liver) Female: 5,770 ± 2,880 ng/mg of liver
  VTG (ng/mg of liver) Male: 9,740 ± 800 ng/mg of liver
  GSI Female: 8.4%
  GSI Male: 0.51%
  HSI Female: 4.7%
  HSI Male: 4.1%
  Length Female: 33.3 mm
  Length Male: 34.5 mm
  Weight Female: 438 mg
  Weight Male: 498 mg
21-day exposure
  effect on fecundity (number of total eggs), in words: significant decrease
